Data from ChEMBL document CHEMBL1201862, “PubChem BioAssay data set” (2004).
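Briefly, cells in 96-well plates were exposed to five compound concentrations for 48 h, and endpoints were estimated by linear interpolation. GI50 is the concentration that inhibits growth by half.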 Activity calls are given as the source filed them. Rule as the data show it: active = GI50 up to about 1.1 µM and inactive = higher.

Assays:
Assay in all cases: growth of human tumour cells (NCI), 48 h
[1] = test system: SR
[2] = test system: SK-MEL-28
[3] = test system: TK-10
[4] = test system: EKVX
[5] = test system: UACC-257
[6] = test system: NCI-H226
[7] = test system: OVCAR-8
[8] = test system: OVCAR-4
[9] = test system: M14
[10] = test system: RPMI-8226
[11] = test system: NCI-H460
[12] = test system: SK-MEL-5
[13] = test system: CAKI-1
[14] = test system: OVCAR-5
[15] = test system: NCI-H23
[16] = test system: SF-295
[17] = test system: A549
[18] = test system: SF-268

Row | SMILES | GI50 [1] | GI50 [2] | GI50 [3] | GI50 [4] | GI50 [5] | GI50 [6] | GI50 [7] | GI50 [8] | GI50 [9] | GI50 [10] | GI50 [11] | GI50 [12] | GI50 [13] | GI50 [14] | GI50 [15] | GI50 [16] | GI50 [17] | GI50 [18]
1 | c1ccc(-c2nnc3nn4c(-c5ccccc5)cnnc4c3c2-c2ccccc2)cc1 | > 100 µM (inactive) | 64 µM (inactive) | 19.2 µM (inactive) | 19.7 µM (inactive) | 96.8 µM (inactive) | > 100 µM (inactive) | 76.4 µM (inactive) | 12.9 µM (inactive) | > 100 µM (inactive) | > 100 µM (inactive) | 75.7 µM (inactive) | 67.1 µM (inactive) | 23.7 µM (inactive) | > 100 µM (inactive) | > 100 µM (inactive) | 74 µM (inactive) | 50.8 µM (inactive) | –
2 | COC(=O)c1ccccc1/N=C/c1ccc(N(CCC#N)S(=O)(=O)c2ccccc2)cc1 | > 100 µM (inactive) | > 100 µM (inactive) | > 100 µM (inactive) | > 100 µM (inactive) | > 100 µM (inactive) | > 100 µM (inactive) | > 100 µM (inactive) | > 100 µM (inactive) | > 100 µM (inactive) | > 100 µM (inactive) | > 100 µM (inactive) | > 100 µM (inactive) | > 100 µM (inactive) | > 100 µM (inactive) | > 100 µM (inactive) | > 100 µM (inactive) | > 100 µM (inactive) | > 100 µM (inactive)
3 | O=[N+]([O-])/C=C/c1ccc(Cl)cc1Cl | 11.4 µM (inactive) | 14.9 µM (inactive) | > 10 µM (inactive) | – | 13.4 µM (inactive) | 17.6 µM (inactive) | 25.4 µM (inactive) | 19.8 µM (inactive) | 11.7 µM (inactive) | 2.44 µM (inactive) | 17.9 µM (inactive) | 15.6 µM (inactive) | 16.3 µM (inactive) | 17.8 µM (inactive) | 19.2 µM (inactive) | 17 µM (inactive) | 21 µM (inactive) | 21.3 µM (inactive)
4 | CCN(CC)c1ccc2c(c1)N=C1N=CC=CN1C2(c1ccc(N(C)C)cc1)c1ccc(N(C)C)cc1 | 3.61 µM (inactive) | 10.8 µM (inactive) | 13 µM (inactive) | 9.73 µM (inactive) | 5.24 µM (inactive) | 10.8 µM (inactive) | 4.19 µM (inactive) | – | 3.32 µM (inactive) | 2.9 µM (inactive) | 5.62 µM (inactive) | 11.9 µM (inactive) | 11.1 µM (inactive) | 13.3 µM (inactive) | 6.95 µM (inactive) | 3.64 µM (inactive) | 12 µM (inactive) | 11 µM (inactive)
5 | O=C1[C@@H]2C3SC(c4ccccc43)[C@@H]2C(=O)N1c1ccccc1 | > 100 µM (inactive) | > 100 µM (inactive) | 97.1 µM (inactive) | > 100 µM (inactive) | > 100 µM (inactive) | > 100 µM (inactive) | > 100 µM (inactive) | – | > 100 µM (inactive) | > 100 µM (inactive) | > 100 µM (inactive) | > 100 µM (inactive) | > 100 µM (inactive) | > 100 µM (inactive) | > 100 µM (inactive) | > 88.9 µM (inactive) | > 100 µM (inactive) | > 95.1 µM (inactive)
6 | CN1C(=O)C(Cl)(C(Cl)(Cl)S(=O)(=O)O)C(=O)c2ccccc21.c1ccncc1 (configuration not stated) | > 100 µM (inactive) | > 100 µM (inactive) | > 100 µM (inactive) | > 100 µM (inactive) | > 100 µM (inactive) | 33.7 µM (inactive) | > 100 µM (inactive) | > 100 µM (inactive) | > 100 µM (inactive) | > 100 µM (inactive) | > 100 µM (inactive) | > 100 µM (inactive) | > 100 µM (inactive) | – | > 100 µM (inactive) | > 100 µM (inactive) | > 100 µM (inactive) | > 100 µM (inactive)
7 | COC(=O)C1=C(c2ccc(OC)c(OC)c2)OC(c2ccc(OC)c(OC)c2)C1 (configuration not stated) | 18.5 µM (inactive) | 45.1 µM (inactive) | 43.2 µM (inactive) | 39.7 µM (inactive) | 36.3 µM (inactive) | 37 µM (inactive) | 29.5 µM (inactive) | 27.9 µM (inactive) | 38.7 µM (inactive) | 37.6 µM (inactive) | 41 µM (inactive) | 15.6 µM (inactive) | – | 32.6 µM (inactive) | 48.5 µM (inactive) | 27.6 µM (inactive) | 42.3 µM (inactive) | 35.6 µM (inactive)
8 | COC[C@@H](/N=C/N1CCc2cc(OC)c(OC)cc2C1)C(C)(C)C | > 100 µM (inactive) | > 100 µM (inactive) | > 100 µM (inactive) | > 100 µM (inactive) | > 100 µM (inactive) | > 100 µM (inactive) | > 100 µM (inactive) | > 100 µM (inactive) | > 100 µM (inactive) | > 100 µM (inactive) | > 100 µM (inactive) | > 100 µM (inactive) | > 100 µM (inactive) | – | > 100 µM (inactive) | > 100 µM (inactive) | > 100 µM (inactive) | > 100 µM (inactive)
9 | O=C(N/C(=C\c1cccc([N+](=O)[O-])c1)c1nc2cc([N+](=O)[O-])ccc2[nH]1)c1ccccc1 | 17.1 µM (inactive) | 36.9 µM (inactive) | 93.3 µM (inactive) | 51.9 µM (inactive) | – | – | 31 µM (inactive) | 19.5 µM (inactive) | 38.9 µM (inactive) | – | – | 20.7 µM (inactive) | 30.4 µM (inactive) | 73.3 µM (inactive) | 27.3 µM (inactive) | 40.4 µM (inactive) | 26.8 µM (inactive) | 19.7 µM (inactive)
10 | C1=CC2CCC1CN2CCC1CNc2ccccc21 (configuration not stated) | > 100 µM (inactive) | > 100 µM (inactive) | > 100 µM (inactive) | > 100 µM (inactive) | > 100 µM (inactive) | > 100 µM (inactive) | > 100 µM (inactive) | – | > 100 µM (inactive) | > 100 µM (inactive) | – | – | – | > 100 µM (inactive) | > 100 µM (inactive) | > 100 µM (inactive) | > 100 µM (inactive) | > 100 µM (inactive)
11 | CC(C)C(Nc1c2ccccc2nc2ccccc12)C(=O)O (configuration not stated) | 46.5 µM (inactive) | > 100 µM (inactive) | > 100 µM (inactive) | 67.8 µM (inactive) | > 100 µM (inactive) | > 100 µM (inactive) | > 100 µM (inactive) | 20.7 µM (inactive) | > 100 µM (inactive) | 32.5 µM (inactive) | 65.5 µM (inactive) | – | > 100 µM (inactive) | > 100 µM (inactive) | > 100 µM (inactive) | > 100 µM (inactive) | > 100 µM (inactive) | > 100 µM (inactive)
12 | CNS(=O)(=O)NNS(=O)(=O)c1ccc2ccccc2c1 | 80.2 µM (inactive) | > 100 µM (inactive) | > 100 µM (inactive) | > 100 µM (inactive) | > 100 µM (inactive) | > 100 µM (inactive) | > 100 µM (inactive) | > 100 µM (inactive) | > 100 µM (inactive) | > 100 µM (inactive) | 40.2 µM (inactive) | > 100 µM (inactive) | > 100 µM (inactive) | > 100 µM (inactive) | > 100 µM (inactive) | > 100 µM (inactive) | > 100 µM (inactive) | > 100 µM (inactive)
13 | COC(=O)/C=C1/CCC2[C@@H](C(=O)CC3[C@]2(C)CCC[C@@]3(C)C(=O)OC)C1C (some centres not stated) | – | 13.3 µM (inactive) | 20 µM (inactive) | 24 µM (inactive) | 10.4 µM (inactive) | 21.2 µM (inactive) | 12.3 µM (inactive) | 8.73 µM (inactive) | 13.2 µM (inactive) | 2.98 µM (inactive) | 14.2 µM (inactive) | 5.69 µM (inactive) | 5.36 µM (inactive) | 20 µM (inactive) | 11.2 µM (inactive) | 17.7 µM (inactive) | 15.6 µM (inactive) | 15 µM (inactive)
14 | CCOc1ccc(/C=C\c2cc(OC)c(OC)c(OC)c2)cc1 | 0.000931 µM (active) | 0.000235 µM (active) | 29.6 µM (inactive) | 0.735 µM (active) | 0.01 µM (active) | 0.00218 µM (active) | 0.000456 µM (active) | 0.114 µM (active) | 0.01 µM (active) | 0.000443 µM (active) | 0.000674 µM (active) | 0.012 µM (active) | 0.01 µM (active) | 22.1 µM (inactive) | 0.027 µM (active) | < 0.0001 µM (active) | 0.0006 µM (active) | 0.000625 µM (active)
15 | O=c1cc(-c2ccccc2)oc2cc(O)cc(O)c12 [CHRYSIN] | 23 µM (inactive) | 16.8 µM (inactive) | 34.5 µM (inactive) | 23.1 µM (inactive) | 21.1 µM (inactive) | 20.6 µM (inactive) | – | 29.8 µM (inactive) | 33 µM (inactive) | 16 µM (inactive) | 14.2 µM (inactive) | 10.1 µM (inactive) | – | 18.6 µM (inactive) | 20.9 µM (inactive) | 14.9 µM (inactive) | 27 µM (inactive) | 23.1 µM (inactive)
16 | CC[C@H](C)C(=O)O[C@H]1C[C@@H](C)C=C2C=C[C@H](C)[C@H](CC[C@@H]3C[C@@H](O)CC(=O)O3)[C@H]21 [LOVASTATIN] | 2.11 µM (inactive) | 25 µM (inactive) | 16.2 µM (inactive) | > 30 µM (inactive) | 20 µM (inactive) | 11.9 µM (inactive) | 7.83 µM (inactive) | > 30 µM (inactive) | 12.3 µM (inactive) | > 30 µM (inactive) | 18 µM (inactive) | 6.7 µM (inactive) | 1.17 µM (inactive) | > 30 µM (inactive) | 1.02 µM (active) | – | 21.2 µM (inactive) | –
